Publication PMC8689225, “Cardiac ryanodine receptor N-terminal region biosensors identify novel inhibitors via FRET-based high-throughput screening” (The Journal of Biological Chemistry, 2021)

How the values were obtained:
[1] = biological target: T1, NTR of mouse RyR2 (Mus musculus, UniProt E9Q401); experiment: Surface plasmon resonance with isolated NTR (His-MBP tag); assay type: binding
T1 construct: The NTR of mouse RyR2 (residues 1–547) was cloned and expressed as previously described; made in house; host or cells: Escherichia coli Rosetta (DE3) pLacI
T1 sequence (E9Q401 1-547): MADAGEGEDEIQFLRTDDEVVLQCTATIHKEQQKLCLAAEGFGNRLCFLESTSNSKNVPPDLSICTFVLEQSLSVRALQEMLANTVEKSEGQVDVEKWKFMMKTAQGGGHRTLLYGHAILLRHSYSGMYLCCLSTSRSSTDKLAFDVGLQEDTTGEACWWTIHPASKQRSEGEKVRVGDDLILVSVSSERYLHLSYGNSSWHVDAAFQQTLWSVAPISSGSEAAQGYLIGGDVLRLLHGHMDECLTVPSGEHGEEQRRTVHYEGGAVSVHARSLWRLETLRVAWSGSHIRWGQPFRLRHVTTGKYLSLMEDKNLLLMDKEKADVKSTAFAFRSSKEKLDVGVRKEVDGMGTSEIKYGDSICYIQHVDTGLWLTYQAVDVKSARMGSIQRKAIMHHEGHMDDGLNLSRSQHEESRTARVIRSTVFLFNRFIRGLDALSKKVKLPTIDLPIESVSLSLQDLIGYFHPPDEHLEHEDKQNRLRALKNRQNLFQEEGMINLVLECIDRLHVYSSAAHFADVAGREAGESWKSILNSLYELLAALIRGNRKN
Method: The SPR experiments were performed using a BIACORE S200 (GE Healthcare) equipped with a NTA sensor chip. NTR with His and MBP tags (>90% pure based on SDS-PAGE) was immobilized using affinity of the His tag to the sensor surface. The surfaces of the sensor chip were activated with 0.5 mM Ni^2+ solution at a flow rate of 10 μl/min. The NTR at a concentration of 30 μg/ml in 10 mM HEPES, 150 mM KCl, pH 7.4, was immobilized on flow cell 2; flow cell 1 was left blank to serve as a reference surface. To collect kinetic binding data, the hits in the running buffer (10 mM HEPES, 150 mM NaCl, 0.05% P20, pH 7.4, 1% DMSO) were injected over the two flow cells at concentrations of 1.5625, 3.125, 6.25, 12.5, 25, 50, and 100 μM at a flow rate of 30 μl/min and at a temperature of 25 °C. The complex was allowed to associate and dissociate for 60 and 60 s, respectively. The surfaces were regenerated with a 120 s injection of 350 mM EDTA. Data were collected at a rate of 1 Hz. The data were fit using the global data analysis option available within Biacore S200 Evaluation 1.0 software.

[2] = biological target: T2, RyR2 (Mus musculus, UniProt E9Q401); experiment: Ca2+ sparks in saponin-permeabilized ventricular cardiomyocytes; assay type: cell-based
T2 construct: endogenous in cells; host or cells: ventricular cardiomyocytes of male C57BL/6J mice, saponin-permeabilized
Method: Mouse ventricular cardiomyocytes were isolated enzymatically from hearts of male C57BL/6J mouse (10–12 weeks old, Jackson Laboratory) as previously described with minor modifications ([66]). Briefly, mice were injected with heparin (500 U/kg body weight) and anesthetized with isoflurane (2 to 5%) to a verified deep surgical plane, whereupon the heart was excised, resulting in euthanasia by exsanguination. Hearts were excised and retrogradely perfused with constant flow on a Langendorff apparatus (37 °C) with Ca^2+-free normal Tyrode’s solution, gassed with 100% O2. Collagenase type II (Worthington Biochemical Co) and protease type XIV (Sigma-Aldrich) were used for enzymatic digestion. Ventricular cardiomyocytes were then mechanically dissociated and filtered through a nylon mesh and allowed to sediment in Tyrode’s solution. The [Ca^2+] of the Tyrode’s solution was then raised to 0.5 mM in stepwise fashion, and cardiomyocytes were kept at room temperature in this solution until use. All animal handling and laboratory procedures were in accordance with the approved protocols of the University of California, Davis Institutional Animal Care and Use Committee conforming to the Guide for the Care and Use of Laboratory Animals published by the US National Institutes of Health (eighth edition, 2011).
Ca^2+ activity was imaged via confocal microscopy (Bio-Rad, Radiance 2100, 40× objective) in the line scan mode (166 lines/s; ex 488 nm, em >505 nm). Ca^2+ sparks were recorded from ventricular cardiomyocytes permeabilized with saponin (50 μg/ml) for 1 min in internal solution containing (in mM) 10 HEPES, 1 EGTA, 1 free MgCl2 (with free [Ca^2+] adjusted to 50 nM using MaxChelator), 120 K-aspartate, 10 reduced glutathione, 5 ATP, 5 phosphocreatine di-Na, creatine phosphokinase 5 U/ml, and dextran (MW: 40,000) 8% at pH 7.20. Cardiomyocytes were immediately washed with saponin-free internal solution and then superfused with internal solution (50 nM Ca^2+free) containing the Ca^2+-sensitive indicator, Fluo-4 pentapotassium salt (10 μM, Invitrogen). Ca^2+ spark parameters were analyzed over a 10 s period from each line scan recording. Ca^2+ transients and diastolic Ca^2+ release events were recorded from intact ventricular cardiomyocytes loaded for 30 min at room temperature with Fluo-4 AM (10 μM, Invitrogen) and Pluronic F-127 (0.02%, Invitrogen) followed by wash and de-esterification for 30 min in Tyrode’s solution containing (in mM) NaCl 140, KCl 4, CaCl2 1.8, MgCl2 1, HEPES 5, Na-HEPES 5, and glucose 5.5 at pH 7.40. To evoke Ca^2+ transients, intact cardiomyocytes were paced at 1 Hz in a field stimulation chamber (Warner Instruments) at room temperature. Ca^2+ activity was assessed in paired fashion before and after incubating cardiomyocytes with fusidic acid (FA) for 6 min at each concentration. ImageJ was used for image processing and analysis, and Ca^2+ sparks were analyzed using the SparkMaster plugin ([67]). Chemical reagents were purchased from Sigma-Aldrich unless indicated otherwise.
Statistical analyses were performed using GraphPad Prism 9. Normality was verified using the D’Agostino & Pearson test. Repeated measures (at different FA concentrations) one-way ANOVA with Geisser–Greenhouse correction followed by the Dunnett’s multiple comparison post-hoc test was used for normally distributed data to determine individual differences in matched responses. […]

[3] = single-cycle kinetics, global analysis

T2 sequence (E9Q401 whole entry): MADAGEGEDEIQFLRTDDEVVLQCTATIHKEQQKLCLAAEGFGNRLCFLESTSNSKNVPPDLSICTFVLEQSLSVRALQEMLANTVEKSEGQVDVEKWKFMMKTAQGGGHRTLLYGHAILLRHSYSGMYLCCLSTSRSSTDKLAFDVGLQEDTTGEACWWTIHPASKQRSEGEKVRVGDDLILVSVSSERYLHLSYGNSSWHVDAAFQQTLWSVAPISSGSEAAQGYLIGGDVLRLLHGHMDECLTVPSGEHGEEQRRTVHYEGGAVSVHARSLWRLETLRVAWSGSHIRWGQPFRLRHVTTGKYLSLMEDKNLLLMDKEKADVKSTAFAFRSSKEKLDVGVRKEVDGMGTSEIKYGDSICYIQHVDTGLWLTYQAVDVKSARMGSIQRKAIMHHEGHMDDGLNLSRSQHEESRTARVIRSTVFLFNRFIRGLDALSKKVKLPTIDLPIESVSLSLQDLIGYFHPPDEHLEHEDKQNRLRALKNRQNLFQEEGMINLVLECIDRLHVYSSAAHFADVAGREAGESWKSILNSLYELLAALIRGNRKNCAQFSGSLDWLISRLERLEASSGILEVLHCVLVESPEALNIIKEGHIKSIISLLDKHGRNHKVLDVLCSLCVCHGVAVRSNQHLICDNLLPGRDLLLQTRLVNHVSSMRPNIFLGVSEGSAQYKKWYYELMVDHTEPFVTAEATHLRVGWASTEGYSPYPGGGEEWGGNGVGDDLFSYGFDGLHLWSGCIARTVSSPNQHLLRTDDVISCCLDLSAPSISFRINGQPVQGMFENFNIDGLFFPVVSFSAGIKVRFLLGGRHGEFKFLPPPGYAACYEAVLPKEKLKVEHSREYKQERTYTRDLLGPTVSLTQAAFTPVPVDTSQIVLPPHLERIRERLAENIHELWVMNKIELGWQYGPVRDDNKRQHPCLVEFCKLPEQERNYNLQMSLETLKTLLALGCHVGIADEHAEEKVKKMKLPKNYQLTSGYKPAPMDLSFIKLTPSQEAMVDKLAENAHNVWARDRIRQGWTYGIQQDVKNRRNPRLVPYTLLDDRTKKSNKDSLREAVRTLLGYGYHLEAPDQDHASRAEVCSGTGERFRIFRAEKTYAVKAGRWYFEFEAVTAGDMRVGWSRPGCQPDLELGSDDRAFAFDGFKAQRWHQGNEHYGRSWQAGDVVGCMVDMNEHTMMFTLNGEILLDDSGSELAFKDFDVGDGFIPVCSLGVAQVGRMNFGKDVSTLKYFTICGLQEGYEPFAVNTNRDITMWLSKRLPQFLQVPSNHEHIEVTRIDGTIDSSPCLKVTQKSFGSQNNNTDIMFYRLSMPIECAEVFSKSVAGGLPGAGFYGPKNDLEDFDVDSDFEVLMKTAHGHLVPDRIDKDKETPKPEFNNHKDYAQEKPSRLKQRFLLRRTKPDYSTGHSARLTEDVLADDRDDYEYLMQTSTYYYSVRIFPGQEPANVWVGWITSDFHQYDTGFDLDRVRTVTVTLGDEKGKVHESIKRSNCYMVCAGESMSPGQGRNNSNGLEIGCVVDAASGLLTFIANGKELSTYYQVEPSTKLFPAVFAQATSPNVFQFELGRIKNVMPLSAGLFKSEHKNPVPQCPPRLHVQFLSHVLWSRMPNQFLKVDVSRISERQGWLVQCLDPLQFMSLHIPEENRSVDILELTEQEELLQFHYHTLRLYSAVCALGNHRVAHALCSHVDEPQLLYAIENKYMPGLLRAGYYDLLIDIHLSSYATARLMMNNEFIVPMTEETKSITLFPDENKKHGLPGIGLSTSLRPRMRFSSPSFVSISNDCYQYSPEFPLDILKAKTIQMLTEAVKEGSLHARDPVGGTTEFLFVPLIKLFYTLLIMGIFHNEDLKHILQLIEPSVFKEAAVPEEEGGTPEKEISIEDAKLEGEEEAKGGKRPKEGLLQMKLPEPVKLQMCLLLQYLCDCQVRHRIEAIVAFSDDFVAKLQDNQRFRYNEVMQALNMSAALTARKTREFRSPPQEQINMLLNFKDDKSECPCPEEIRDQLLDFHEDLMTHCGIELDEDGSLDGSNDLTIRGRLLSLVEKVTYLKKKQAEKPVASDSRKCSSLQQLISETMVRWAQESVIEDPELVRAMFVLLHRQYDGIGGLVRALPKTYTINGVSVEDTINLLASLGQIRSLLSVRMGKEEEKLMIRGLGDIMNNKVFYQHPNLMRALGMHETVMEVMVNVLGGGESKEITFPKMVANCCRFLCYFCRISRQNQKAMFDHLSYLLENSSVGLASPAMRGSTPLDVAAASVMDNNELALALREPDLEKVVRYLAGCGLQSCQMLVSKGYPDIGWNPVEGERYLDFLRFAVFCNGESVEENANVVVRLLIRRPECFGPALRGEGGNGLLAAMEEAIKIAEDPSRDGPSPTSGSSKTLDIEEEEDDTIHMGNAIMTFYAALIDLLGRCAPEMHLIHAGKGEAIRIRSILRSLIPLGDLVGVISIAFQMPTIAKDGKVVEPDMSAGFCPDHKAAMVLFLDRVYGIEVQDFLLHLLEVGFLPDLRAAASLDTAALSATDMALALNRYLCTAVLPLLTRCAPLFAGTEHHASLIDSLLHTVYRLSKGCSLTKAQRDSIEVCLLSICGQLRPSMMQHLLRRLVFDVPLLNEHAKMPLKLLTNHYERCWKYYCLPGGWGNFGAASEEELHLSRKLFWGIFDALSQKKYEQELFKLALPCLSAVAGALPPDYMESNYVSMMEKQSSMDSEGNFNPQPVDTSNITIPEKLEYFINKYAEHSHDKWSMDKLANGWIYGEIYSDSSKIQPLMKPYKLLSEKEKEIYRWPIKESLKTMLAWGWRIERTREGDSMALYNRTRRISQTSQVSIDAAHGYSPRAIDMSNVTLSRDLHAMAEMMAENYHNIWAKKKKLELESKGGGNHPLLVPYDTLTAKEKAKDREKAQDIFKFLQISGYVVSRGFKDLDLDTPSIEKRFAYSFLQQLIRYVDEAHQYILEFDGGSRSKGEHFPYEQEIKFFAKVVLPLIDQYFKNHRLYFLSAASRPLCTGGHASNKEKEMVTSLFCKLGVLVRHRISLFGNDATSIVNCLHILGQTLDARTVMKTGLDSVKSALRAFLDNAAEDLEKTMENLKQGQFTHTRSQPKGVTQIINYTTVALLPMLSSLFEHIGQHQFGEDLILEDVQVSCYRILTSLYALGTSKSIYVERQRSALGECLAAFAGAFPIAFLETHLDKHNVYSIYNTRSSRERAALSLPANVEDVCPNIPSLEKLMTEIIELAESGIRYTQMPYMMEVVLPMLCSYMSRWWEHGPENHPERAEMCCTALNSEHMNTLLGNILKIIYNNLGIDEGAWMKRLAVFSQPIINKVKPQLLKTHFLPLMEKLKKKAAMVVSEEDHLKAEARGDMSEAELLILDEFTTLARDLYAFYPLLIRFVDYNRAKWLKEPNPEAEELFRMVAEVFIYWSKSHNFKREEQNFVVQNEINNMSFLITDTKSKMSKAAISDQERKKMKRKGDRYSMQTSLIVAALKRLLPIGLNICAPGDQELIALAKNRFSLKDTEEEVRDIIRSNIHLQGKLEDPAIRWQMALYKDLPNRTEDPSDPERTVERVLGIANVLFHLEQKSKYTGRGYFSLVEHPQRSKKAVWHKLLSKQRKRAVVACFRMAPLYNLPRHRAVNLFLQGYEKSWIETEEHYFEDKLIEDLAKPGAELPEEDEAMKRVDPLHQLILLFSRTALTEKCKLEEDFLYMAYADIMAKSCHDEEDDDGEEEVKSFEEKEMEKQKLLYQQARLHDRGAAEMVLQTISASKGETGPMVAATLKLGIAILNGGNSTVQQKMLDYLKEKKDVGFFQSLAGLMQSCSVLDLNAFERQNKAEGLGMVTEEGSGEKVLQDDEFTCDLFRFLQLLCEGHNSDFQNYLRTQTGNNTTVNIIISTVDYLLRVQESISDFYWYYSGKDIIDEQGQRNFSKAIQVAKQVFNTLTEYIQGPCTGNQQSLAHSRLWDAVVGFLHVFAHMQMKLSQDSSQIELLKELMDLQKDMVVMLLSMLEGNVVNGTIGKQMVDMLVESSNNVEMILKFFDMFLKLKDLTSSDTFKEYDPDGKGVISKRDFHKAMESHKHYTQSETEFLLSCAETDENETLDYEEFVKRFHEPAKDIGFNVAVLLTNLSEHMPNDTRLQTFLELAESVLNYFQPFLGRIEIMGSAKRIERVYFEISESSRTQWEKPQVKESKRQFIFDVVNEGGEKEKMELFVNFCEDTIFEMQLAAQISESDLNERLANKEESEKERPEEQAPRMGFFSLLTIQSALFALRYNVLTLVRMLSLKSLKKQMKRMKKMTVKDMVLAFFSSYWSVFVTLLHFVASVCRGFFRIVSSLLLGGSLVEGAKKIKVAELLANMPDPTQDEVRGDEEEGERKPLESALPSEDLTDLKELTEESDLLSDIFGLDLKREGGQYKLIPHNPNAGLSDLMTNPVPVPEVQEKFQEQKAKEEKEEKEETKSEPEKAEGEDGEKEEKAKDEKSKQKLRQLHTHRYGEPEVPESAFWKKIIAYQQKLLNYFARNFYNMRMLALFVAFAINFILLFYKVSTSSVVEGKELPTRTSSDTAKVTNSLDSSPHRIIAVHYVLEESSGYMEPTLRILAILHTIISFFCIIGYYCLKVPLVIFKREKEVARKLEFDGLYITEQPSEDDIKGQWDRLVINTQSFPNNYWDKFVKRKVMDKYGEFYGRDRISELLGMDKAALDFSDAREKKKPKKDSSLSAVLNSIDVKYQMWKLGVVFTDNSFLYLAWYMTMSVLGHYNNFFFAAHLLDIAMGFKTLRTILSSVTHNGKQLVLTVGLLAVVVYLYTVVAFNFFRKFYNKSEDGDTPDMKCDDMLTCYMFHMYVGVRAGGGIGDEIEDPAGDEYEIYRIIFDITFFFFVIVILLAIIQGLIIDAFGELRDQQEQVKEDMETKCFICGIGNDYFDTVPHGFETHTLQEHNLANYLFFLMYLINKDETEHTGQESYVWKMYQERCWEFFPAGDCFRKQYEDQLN

CC(=O)O[C@H]1C[C@@]2(C)[C@@H](C[C@@H](O)[C@H]3[C@@]4(C)CC[C@@H](O)[C@@H](C)[C@@H]4CC[C@@]32C)/C1=C(\CCC=C(C)C)C(=O)O [FA, (2Z)-2-[(3R,4S,5S,8S,9S,10S,11R,13R,14S,16S)-16-acetyloxy-3,11-dihydroxy-4,8,10,14-tetramethyl-2,3,4,5,6,7,9,11,12,13,15,16-dodecahydro-1H-cyclopenta[a]phenanthren-17-ylidene]-6-methylhept-5-enoic acid]
KD (SPR) ([1]; NTR with His-MBP tag): low micromolar | KD (SPR), another component of heterogenous model fit [1, 3]: nanomolar | KD (SPR), one component of heterogenous model fit [1, 3]: micromolar | Ca2+ spark signal mass relative to 0 nM FA ([2]; 1 μM FA, p = 0.011): decreased significantly | Ca2+ spark signal mass relative to 0 nM FA ([2]; 10 μM FA, p = 0.001): decreased significantly | Ca2+ spark frequency over [FA] relative to 0 nM FA ([2]; [Ca2+]i 50 nM, 6 min exposures): did not detect significant differences | Ca2+ spark signal mass, meancell slope ([2]; increasing [FA], p = 0.0007): −0.336 F/F0 × μm × s/log10(μM) | Ca2+ spark frequency, meancell slope ([2]; increasing [FA], p = 0.115): −0.082 sparks/100 μm/s/log10(μM)
